Test results reported in patent US4992418A, “Superactive human insulin analogue-[10-Aspartic Acid-B]Human Insulin” (Mount Sinai School of Medicine, priority 1987, dated 1991).

Experiments:
[1] = test system: Guinea pig antiserum to porcine insulin; details: relative to bovine or porcine insulin
Description: Guinea pig antiserum to porcine insulin and goat anti-guinea pig-γ globulin were used at a 1:25 dilution in assay buffer (sodium phosphate, 0.04M, pH 7.6, containing 0.154M NaCl, 0.1% gelatin, and 0.01% thimerosal). […] After incubation at room temperature overnight, 0.2 ml of the precipitating antibody (goat anti-guinea pig-γ globulin) was added, and the tubes were further incubated overnight at room temperature. Immune precipitates were collected on cellulose-acetate filters and washed with two successive 1.0 mL portions of ice-cold assay buffer. Filters were dried and radioactivity was counted in a scintillation counter in Filtron-X®. Straight-line plots of Co /Ci were constructed by linear regression analysis as described by Hales et al., Biochem. J. (1963), vol.

[2] = biological target: T1, insulin receptors in rat liver plasma membranes (Rattus norvegicus, UniProt P15127); experiment: Insulin receptor binding assay (125I-insulin displacement, rat liver plasma membranes)
T1 construct: Rat liver plasma membranes were prepared as described by Horvat et al; from tissue; host or cells: rat liver plasma membranes
Description: Receptor binding assays using rat liver plasma membranes were performed as described by Kitagawa et al., Biochemistry (1984), vol. 23, pp. 1405-1413. Rat liver plasma membranes were prepared as described by Horvat et al., Biochim. Biophys. Acta (1975), vol. 382, pp. 609-620.
Following incubation for 45 min at 24° C., the mixtures were diluted with 2.0 ml of ice cold 0.1M sodium phosphate, pH 7.4, containing 0.1% fraction V bovine serum albumin and immediately filtered through cellulose-acetate filters. The filters were washed twice with the ice cold buffer, dried, and then radioactivity was counted in a scintillation counter using Filtron-X®. Nonspecific binding, defined as radioactivity remaining on the filters when the incubations contained 1×10^-5 M unlabeled insulin, was subtracted from all values.
The data points shown in FIG. 3 represent the mean of triplicate determinations in a representative assay which was performed four times. The maximum binding in these assays amounted to 8.2% of the input radioactivity.

insulin receptors = insulin receptors (Rattus norvegicus, UniProt P15127); experiment: Standard in vitro assays measuring relative insulin potency (summary statements); details: in vitro experiments of the Examples
insulin receptors, sequence (P15127 27-759 limits assumed): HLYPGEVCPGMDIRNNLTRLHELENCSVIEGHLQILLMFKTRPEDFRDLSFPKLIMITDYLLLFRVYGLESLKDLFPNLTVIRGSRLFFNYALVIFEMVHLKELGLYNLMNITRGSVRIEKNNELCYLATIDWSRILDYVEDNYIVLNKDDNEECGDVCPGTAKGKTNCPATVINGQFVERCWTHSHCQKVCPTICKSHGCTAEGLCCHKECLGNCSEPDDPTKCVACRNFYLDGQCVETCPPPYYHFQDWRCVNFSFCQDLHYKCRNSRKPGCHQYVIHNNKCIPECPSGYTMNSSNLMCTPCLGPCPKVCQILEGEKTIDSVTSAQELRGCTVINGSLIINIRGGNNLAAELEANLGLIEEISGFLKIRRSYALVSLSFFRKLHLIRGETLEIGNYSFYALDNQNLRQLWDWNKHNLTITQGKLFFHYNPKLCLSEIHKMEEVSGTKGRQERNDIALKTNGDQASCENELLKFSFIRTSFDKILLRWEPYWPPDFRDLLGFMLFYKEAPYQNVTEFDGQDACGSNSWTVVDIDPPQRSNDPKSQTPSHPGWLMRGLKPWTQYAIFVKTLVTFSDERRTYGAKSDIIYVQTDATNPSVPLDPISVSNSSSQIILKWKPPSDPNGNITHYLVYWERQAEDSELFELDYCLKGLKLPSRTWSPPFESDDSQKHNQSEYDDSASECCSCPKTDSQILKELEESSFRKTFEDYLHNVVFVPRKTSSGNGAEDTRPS
insulin receptors, sequence (P15127 764-1383 partner limits assumed): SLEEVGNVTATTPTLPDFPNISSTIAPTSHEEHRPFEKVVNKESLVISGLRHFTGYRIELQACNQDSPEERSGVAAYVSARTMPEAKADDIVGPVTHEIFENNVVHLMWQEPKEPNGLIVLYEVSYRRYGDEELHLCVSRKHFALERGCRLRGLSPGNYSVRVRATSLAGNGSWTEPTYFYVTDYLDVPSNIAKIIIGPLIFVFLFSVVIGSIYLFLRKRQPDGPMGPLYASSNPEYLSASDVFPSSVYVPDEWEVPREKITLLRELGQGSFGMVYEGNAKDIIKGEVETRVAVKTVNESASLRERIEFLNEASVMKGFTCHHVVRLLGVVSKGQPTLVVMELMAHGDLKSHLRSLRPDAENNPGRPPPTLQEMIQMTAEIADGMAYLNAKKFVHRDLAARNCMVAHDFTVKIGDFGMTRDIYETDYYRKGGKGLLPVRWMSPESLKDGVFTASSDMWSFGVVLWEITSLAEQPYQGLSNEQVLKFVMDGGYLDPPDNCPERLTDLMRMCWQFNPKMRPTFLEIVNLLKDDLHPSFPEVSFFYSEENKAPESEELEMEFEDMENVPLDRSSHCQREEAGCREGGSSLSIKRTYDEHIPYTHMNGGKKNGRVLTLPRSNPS

T1 sequence (P15127 27-759 limits assumed): as the sequence (P15127 27-759 limits assumed) above
T1 sequence (P15127 764-1383 partner limits assumed): as the sequence (P15127 764-1383 partner limits assumed) above
Description for rat adipocytes: The assays measured the ability of the insulin analogue as compared to bovine insulin to convert, [3-^3 H] glucose into lipids.
Adipocytes were prepared by incubating epididymal and perirenal fat pads obtained from male rats weighing 200-300 g with 1.0 mg/ml collagenase for 60 min at 37° C., followed by filtration through gauze and then through fine-mesh silk. Cells were washed twice by flotation in a clinical centrifuge before suspension for use. The incubation medium was Krebs-Ringer bicarbonate containing half the recommended calcium, 0.5 mM glucose, and 3% fatty acid free bovine serum albumin, with 95% O2 -5% CO2 as the gas phase. […] Cells were preincubated for 45 min at 37° C. before the addition of [3-^3 H] glucose. Incubation was continued for 60 min and stopped by the addition of 0.2 ml of 5N H2 SO4 and 0.2 ml of corn oil to aid in the extraction of lipids. Samples were extracted with 10 ml of Soluscint-0® for 30 min at room temperature before counting the radioactivity in a scintillation counter. […] Zero and 100% stimulation of lipogenesis were defined as radioactivity observed in the absence and presence, respectively, of 9.1×10^-10 M insulin (5.5 ng/ml).
Stimulation, expressed as percent of maximum, was plotted as a function of the agonist concentration. […]

Substance: [10-Aspartic acid-B] human insulin
- Agonist character / maximum stimulation of lipogenesis (rat adipocytes; compared with natural bovine insulin, FIG. 4): full agonist
- Relative potency: concentration ratio required to produce 50% of maximum stimulation of lipogenesis (rat adipocytes; relative to bovine insulin, isolated rat adipocytes, assays performed four times): 435±144%
- Potency in radioimmunoassay (ratio of slopes of Co/Ci plots) [1]: approximately equal potency
- Shape of dose response curves in receptor binding ([2]; compared with bovine insulin, FIG. 3): essentially parallel
- Binding to the insulin receptor relative to natural insulins ([2]; more tightly than natural insulins): about five
- Relative potency: concentration ratio required to inhibit 50% of specific 125I-insulin binding ([2]; relative to bovine insulin, rat liver plasma membranes, assay performed four times): about 534±146%
- In vitro activity relative to natural insulin (in words) (insulin receptors): several fold more active
